Each structure is given as a SMILES string. Calls of active or inactive are those of the source. The calls are words filed in the database; no cut-off is given here.

Our source for the viability and Activity values is ChEMBL document CHEMBL1212835, “Identification of a potent and noncytotoxic inhibitor of melanin production” (Bioorg Med Chem, 2010).

Tested on in the first data set: not listed separately
The experiment in a line: Cytotoxicity against mouse Melan-a cells assessed as cell viability at 30 uM. The data set is classed as cell-based. As to conditions: Melan-a cells, read-out: Activity.
For the compound `COC(=O)c1ccccc1NC(=O)c1ccc(OC)cc1`, the viability at 30 µM was determined as 31.1%.

For `COc1ccc(C(=O)Nc2ccc(C)cc2)cc1`, the viability at 30 µM amounted to 0.7%.

Turning to `COc1ccccc1NC(=O)c1ccc(C)cc1`, the viability at 30 µM came out at 18.5%.

For `CCCCOc1ccc(NC(=O)c2cccc(C)c2)cc1`, the viability at 30 µM was 4.8%.

For `COc1cc(NC(=O)c2cccc(OC)c2)cc(OC)c1`, the viability at 30 µM turned out to be 9.6%.

For `COc1ccccc1NC(=O)c1ccc(C#N)cc1`, the viability at 30 µM is -3.1%.

Regarding `COc1cccc(C(=O)Nc2cc(C)cc(C)c2)c1`, the viability at 30 µM worked out at 32%.

For the compound `COC(=O)c1ccc(NC(=O)c2ccco2)cc1`, the viability at 30 µM was -8.4%.

With `COc1ccc(OC)c(NC(=O)c2ccccc2C)c1`, the viability at 30 µM came out at 8.6%.

A further data set deals with Cavia porcellus. The experiment in a line: Antimelanogenic activity in guinea pig skin assessed as inhibition of UVB-induced pigmentation at 10 ug administered topically bid for 4 weeks. The class given is functional, organism-based.
Settings: not given
`COc1cccc(C(=O)Nc2cc(C)cc(C)c2)c1`: the outcome was Active.
